Laboratory results from patent US11548884B2, “Cyclic amidine compounds for the treatment of autoimmune disease” (Hoffmann-La Roche Inc., priority 2018, dated 2023).

The compounds below were run against T1, human TLR8 (Homo sapiens, UniProt Q9NR97) (assay: HEK293-Blue-hTLR-8 cells assay (SEAP reporter, R848 stimulation)). Details: HEK293-Blue-hTLR8 cells, R848 ligand, 20 h incubation.
T1 sequence (Q9NR97 27-1041): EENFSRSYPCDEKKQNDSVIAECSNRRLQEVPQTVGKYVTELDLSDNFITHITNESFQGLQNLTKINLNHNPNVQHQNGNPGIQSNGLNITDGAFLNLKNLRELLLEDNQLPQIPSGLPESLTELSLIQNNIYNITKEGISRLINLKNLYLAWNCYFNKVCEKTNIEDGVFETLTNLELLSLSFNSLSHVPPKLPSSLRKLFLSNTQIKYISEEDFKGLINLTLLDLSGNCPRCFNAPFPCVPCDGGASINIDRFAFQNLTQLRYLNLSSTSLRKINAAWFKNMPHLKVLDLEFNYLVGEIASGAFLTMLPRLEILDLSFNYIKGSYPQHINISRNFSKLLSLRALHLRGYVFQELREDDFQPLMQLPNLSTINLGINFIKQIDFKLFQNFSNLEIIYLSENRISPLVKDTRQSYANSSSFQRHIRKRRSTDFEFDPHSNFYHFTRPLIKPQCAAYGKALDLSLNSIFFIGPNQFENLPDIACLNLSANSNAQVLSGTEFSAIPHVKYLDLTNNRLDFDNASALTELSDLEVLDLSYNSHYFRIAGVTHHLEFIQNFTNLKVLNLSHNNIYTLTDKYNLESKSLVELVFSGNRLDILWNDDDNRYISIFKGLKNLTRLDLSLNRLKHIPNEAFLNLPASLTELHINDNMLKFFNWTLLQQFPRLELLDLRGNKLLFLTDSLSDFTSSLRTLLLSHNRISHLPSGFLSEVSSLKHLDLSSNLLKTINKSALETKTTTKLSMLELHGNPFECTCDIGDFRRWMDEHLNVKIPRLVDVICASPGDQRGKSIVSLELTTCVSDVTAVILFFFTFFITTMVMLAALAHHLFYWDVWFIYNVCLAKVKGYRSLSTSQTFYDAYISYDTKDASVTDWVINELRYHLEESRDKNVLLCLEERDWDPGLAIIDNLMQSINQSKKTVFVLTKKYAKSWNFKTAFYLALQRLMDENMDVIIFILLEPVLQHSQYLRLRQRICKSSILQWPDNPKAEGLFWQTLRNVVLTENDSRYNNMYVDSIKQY
Assay type: cell-based
Protocol: The following tests were carried out in order to determine the activity of the compounds of formula (I) in HEK293-Blue-hTLR-7/8/9 cells assay.
HEK293-Blue-hTLR-8 Cells Assay:
A stable HEK293-Blue-hTLR-8 cell line was purchased from InvivoGen (Cat. #: hkb-htlr8, San Diego, Calif., USA). These cells were originally designed for studying the stimulation of human TLR8 by monitoring the activation of NF-κB. A SEAP (secreted embryonic alkaline phosphatase) reporter gene was placed under the control of the IFN-β minimal promoter fused to five NF-κB and AP-1-binding sites. The SEAP was induced by activating NF-κB and AP-1 via stimulating HEK-Blue hTLR8 cells with TLR8 ligands. Therefore the reporter expression was declined by TLR8 antagonist under the stimulation of a ligand, such as R848, for incubation of 20 h. The cell culture supernatant SEAP reporter activity was determined using QUANTI-Blue™ kit (Cat. #: rep-qb1, Invivogen, San Diego, Calif., USA) at a wavelength of 640 nm, a detection medium that turns purple or blue in the presence of alkaline phosphatase.
HEK293-Blue-hTLR8 cells were incubated at a density of 250,000˜450,000 cells/mL in a volume of 170 μL in a 96-well plate in Dulbecco's Modified Eagle's medium (DMEM) containing 4.5 g/L glucose, 50 U/mL penicillin, […], […], 2 mM L-glutamine, 10% (v/v) heat-inactivated fetal bovine serum with addition of 20 μL test compound in a serial dilution in the presence of final DMSO at 1% and 10 μL of 60 uM R848 in above DMEM, perform incubation under 37° C. in a CO2 incubator for 20 h. Then 20 μL of the supernatant from each well was incubated with 180 μL Quanti-blue substrate solution at 37° C. for 2 h and the absorbance was read at 620˜655 nm using a spectrophotometer. The signalling pathway that TLR8 activation leads to downstream NF-κB activation has been widely accepted, and therefore similar reporter assay was modified for evaluating TLR8 antagonist.
`C[C@@H]1CN(c2ccc(C#N)c3ncccc23)C[C@H](C2=Nc3cccc(N4CCNCC4)c3CN2)O1` [Example 6, 5-[(2R,6R)-2-methyl-6-(5-piperazin-1-yl-3,4-dihydroquinazolin-2-yl)morpholin-4-yl]quinoline-8-carbonitrile] gave an IC50 of 0.008 µM. With `C[C@@H]1CN(c2ccc(C#N)c3ncccc23)C[C@H](C2=Nc3ccc(N4CCNCC4)cc3CN2)O1` [Example 7, 5-[(2R,6R)-2-methyl-6-(6-piperazin-1-yl-3,4-dihydroquinazolin-2-yl)morpholin-4-yl]quinoline-8-carbonitrile] the IC50 was less than 0.003 µM. `C[C@@H]1CN(c2ccc(C#N)c3ncccc23)C[C@H](C2=Nc3cc(N4CCNCC4)ccc3CN2)O1` [Example 8, 5-[(2R,6R)-2-methyl-6-(7-piperazin-1-yl-3,4-dihydroquinazolin-2-yl)morpholin-4-yl]quinoline-8-carbonitrile] was tested, and the IC50 was 0.004 µM. `C[C@@H]1CN(c2ccc(C#N)c3ncccc23)C[C@H](C2=Nc3c(cccc3N3CCNCC3)CN2)O1` [Example 9, 5-[(2R,6R)-2-methyl-6-(8-piperazin-1-yl-3,4-dihydroquinazolin-2-yl)morpholin-4-yl]quinoline-8-carbonitrile] was tested, and the IC50 was 0.046 µM. `C[C@@H]1CN(c2ccc(C#N)c3ncccc23)C[C@H](C2=Nc3cccc(N4CCN(C)CC4)c3CN2)O1` [Example 12, 5-[(2R,6R)-2-methyl-6-[5-(4-methylpiperazin-1-yl)-3,4-dihydroquinazolin-2-yl]morpholin-4-yl]quinoline-8-carbonitrile] showed an IC50 of 0.014 µM. With `C[C@@H]1CN(c2ccc(C#N)c3ncccc23)C[C@H](C2=Nc3cccc(N4CCC5(CCNC5)C4)c3CN2)O1` (stereo partly drawn) [Example 13, 5-[(2R,6R)-2-[5-(2,7-diazaspiro[4.4]nonan-2-yl)-3,4-dihydroquinazolin-2-yl]-6-methyl-morpholin-4-yl]quinoline-8-carbonitrile] the IC50 was 0.087 µM. `C[C@@H]1CN(c2ccc(C#N)c3ncccc23)C[C@H](C2=Nc3cccc(C4=CCNCC4)c3CCN2)O1` [Example 16, 5-[(2R,6R)-2-methyl-6-[6-(1,2,3,6-tetrahydropyridin-4-yl)-4,5-dihydro-3H-1,3-benzodiazepin-2-yl]morpholin-4-yl]quinoline-8-carbonitrile] gave an IC50 of 0.191 µM. Work on `C[C@@H]1CN(c2ccc(C#N)c3ncccc23)C[C@H](C2=Nc3ccc(N4CCNCC4)cc3CCN2)O1` [Example 17, 5-[(2R,6R)-2-methyl-6-(7-piperazin-1-yl-4,5-dihydro-3H-1,3-benzodiazepin-2-yl)morpholin-4-yl]quinoline-8-carbonitrile] yielded an IC50 of 0.148 µM. Compound `C[C@@H]1CN(c2ccc(C#N)c3ncccc23)C[C@H](C2=Nc3cccc(C4CCNCC4)c3CN2)O1` [Example 18, 5-[(2R,6R)-2-methyl-6-[5-(4-piperidyl)-3,4-dihydroquinazolin-2-yl]morpholin-4-yl]quinoline-8-carbonitrile] has an IC50 of 0.071 µM.
